This is an account of results in ChEMBL document CHEMBL3120052, “HCV polymerase inhibitors” (ACS Med Chem Lett, 2014).

The experiment has as its system Hepatitis C virus. In words: Antiviral activity against HCV genotype 1b expressing wild type NS3-NS5B infected in HuH7 luc/neo cells assessed as inhibition of RNA replication after 3 days by luciferase reporter gene assay. It counts as functional, organism-based, Hepacivirus hominis. The settings on record: Huh-7, 72 h. A general note: Reporter assays use an easily measured gene product as a stand-in for the process of interest.
With `C[C@H](NP(=O)(OC[C@H]1O[C@@H](n2ccc(=O)[nH]c2=O)[C@](C)(NC(=O)OC(C)(C)C)[C@@H]1O)Oc1ccccc1)C(=O)OC1CCCCCCC1` (stereo partly drawn), the EC50 (in general, the concentration needed to bring the measured effect to its halfway point) turned out to be 15000 nM.
As to `C[C@H](NP(=O)(OC[C@H]1O[C@@H](n2ccc(=O)[nH]c2=O)[C@](C)(N)[C@@H]1O)Oc1ccccc1)C(=O)OCCC(C)(C)C` (stereo partly drawn), the EC50 is 490 nM.
On to `C[C@H](NP(=O)(OC[C@H]1O[C@@H](n2ccc(=O)[nH]c2=O)[C@](C)(N)[C@@H]1O)Oc1ccccc1)C(=O)OC1CCCCCC1` (stereo partly drawn), for which the EC50 stood at 190 nM.
For the molecule `C[C@H](NP(=O)(OC[C@H]1O[C@@H](n2ccc(=O)[nH]c2=O)[C@](C)(NC(=O)OC(C)(C)C)[C@@H]1O)Oc1ccccc1)C(=O)OC1CCCCCC1` (stereo partly drawn), the EC50 turned out to be 3000 nM.
In the case of `C[C@H](NP(=O)(OC[C@H]1O[C@@H](n2ccc(=O)[nH]c2=O)[C@](C)(NC(=O)OC(C)(C)C)[C@@H]1O)Oc1ccccc1)C(=O)OC1CCCC1` (stereo partly drawn) it was 4700 nM; in that of `C[C@H](NP(=O)(OC[C@H]1O[C@@H](n2ccc(=O)[nH]c2=O)[C@](C)(N)[C@@H]1O)Oc1ccccc1)C(=O)OC1CCCC1` (stereo partly drawn), 470 nM; in that of `C[C@H](NP(=O)(OC[C@H]1O[C@@H](n2ccc(=O)[nH]c2=O)[C@](C)(NC(=O)OC(C)(C)C)[C@@H]1O)Oc1ccccc1)C(=O)OCCC(C)(C)C` (stereo partly drawn), 2300 nM.
In the case of `C[C@H](NP(=O)(OC[C@H]1O[C@@H](n2ccc(=O)[nH]c2=O)[C@](C)(N)[C@@H]1O)Oc1ccccc1)C(=O)OC1CCCCCCC1` (stereo partly drawn) it was 290 nM.
